Laboratory results as given in patent US7427418B2, “Phloridzin-rich phenolic fraction and use thereof as a cosmetic, dietary or nutraceutical agent” (Diana Ingredients S.A., priority 2001, dated 2008).

Columns and labels:
[1] = Water solubility of the powder; format: physicochemical; conditions: in words
[2] = test system: plasmid DNA damaged by OH° radical (hydrogen peroxide + UVB); experiment: "3D" test (Damaged DNA Detection): protection of DNA against OH° radicals; format: biochemical; conditions: for Specific protection: OH° radical
Method: The free-radical-scavenging effects of the phloridzin-rich polyphenolic fractions obtained according to the process of the invention were measured in vitro by the “3D” test (Damaged DNA Detection, Analytical Biochemistry, (1995), pp. 37-42).
The principle is based on repairing DNA lesions, the damaged DNA being used as a marker of protective efficacy of the test molecules with respect to free OH^∘ radicals: the reduction in lesions observed on the DNA is correlated with the trapping of the free radicals.
This test carried out on plasmid DNA allows the detection of genotoxic agents at the early stage of the lesion-mutation-cancerization process. Molecules or mixtures with antioxidant or free-radical-scavenging properties, which can thus protect a human cell from oxidative damage caused by reactive oxygenated species (ROSs), can thus be detected.
The protocol was as follows: • the target DNA was adsorbed onto sensitized wells and then incubated with genotoxic agents in the presence or absence of the polyphenolic extract to be tested (dissolved in an ethanol solution at 2% or in DMSO) or in the presence of catechin (control). In this test, the OH^∘ radical produced by homolytic cleavage of hydrogen peroxide was used as DNA-damaging genotoxic agent. The hydrogen peroxide was added to the wells, which were then irradiated with UVB rays (700 J/m^2). Furthermore, a positive repair control consisting of a plasmid DNA predamaged with ultraviolet C radiation was added; • a step of washing with ultrapure water and then with a dioxane solution at 20% in ultrapure water for 5 minutes at 30° C. with gentle stirring made it possible to remove the non-specific interactions between the sample and the test, due to the presence of macromolecules such as proteins that may interfere with the repair signal; • a repair step was performed in the presence of purified cell extracts (which contain the active enzymes of the various DNA lesion repair pathways) and of biotin-coupled modified nucleotides (dUTP). The repair of the lesions involved a phase of excision of the lesions followed by a resynthesis of the DNA fragment or of excised bases. […] The light signal observed and read on the luminometer was proportional to the amount of lesions repaired.
The percentage of protection observed in the presence of ROSs was calculated as the relative reduction of the lesional effect due to the OH^∘ species, that is to say: % protection={[RLU oxidant−RLU (oxidant+sample)]/RLU oxidant}×100 • where RLU=relative light units (arbitrary units of quantity of light).
The specific percentage of protection was corrected by the percentage of non-specific inhibition measured on the samples predamaged with UVC. It is an indication of the free-radical-scavenging activity due to the only added extracts.
The IC50 is the concentration in mg/ml of test product which gives 50% protective activity against the genotoxic agent OH^∘. The lower the value, the greater the antioxidant activity of the test product.

Question: Which Water solubility [1] does the source give for `O=C(CCc1ccc(O)cc1)c1c(O)cc(O)cc1O` [phloretin] here?
Answer: very low solubility

Question: Which results are given for Catechin?
Answer: Specific protection ([2]; concentration 0.016 mg/ml): 16%; Specific protection ([2]; concentration 0.06 mg/ml): 28%; Specific protection ([2]; concentration 0.25 mg/ml): 52%; Specific protection ([2]; concentration 1 mg/ml): 65%; IC50 ([2]; concentration giving 50% protective activity against the genotoxic agent OH°): 240 µg/mL
